# Test results from patent publication US11701341B2, “Use of 3-[5-amino-4-(3-cyanobenzoyl)-pyrazol-1-yl]-n-cyclopropyl-4-methylbenzamide in the treatment of acute exacerbations of chronic obstructive pulmonary disease” (MEREO BIOPHARMA 1 LIMITED, priority 2017, dated 2023).
# Tests used:
# patients with AECOPD = assay: Phase 2 trial (AETHER): change in FEV1 from baseline to Day 7, on top of Standard of Care; assay type: in vivo, human; conditions: for improvement in FEV1 (change from baseline to Day 7): sub-group with blood eosinophils <2%, oral, three doses over five days (Days 1, 3, 5), on top of Standard of Care, FIG. 1, FIG. 2
# Source text: (§1) A Phase 2 trial (referred to as AETHER) was a double-blind, randomised, placebo-controlled clinical study investigating the use of BCT-197, on top of Standard of Care, for the treatment of patients with AECOPD. Standard of Care included the addition of steroids and/or antibiotics to a patient's chronic COPD medication and symptomatic bronchodilators. Following baseline assessment, 282 eligible patients were randomised to receive either two different dose regimens of BCT-197 or placebo (three doses over five days). The primary endpoint was a comparison of change in forced expiratory volume in 1 second (FEV1) from baseline to day 7 within each arm of the study.
# The trial assessed adult patients ≥40 years with an acute exacerbation of COPD (as defined by increase in symptoms of cough, and/or sputum and/or breathlessness that required addition of antibiotics and or systemic corticosteroids to their regular treatment).
# Patients received one of two oral dosing regimens of 3-[5-amino-4-(3-cyanobenzoyl)-pyrazol-1-yl]-N-cyclopropyl-4-methylbenzamide or matching oral placebo administered according to the dosing schedules shown in Table 1. […]
# Efficacy of treatment was measured by the primary endpoint of change in FEV1 from baseline (before treatment) to Day 7. Patients with COPD and low eosinophils (determined by blood percentages or absolute counts) are considered to be poorly responsive to treatment of acute exacerbations using known treatments.
# [1] = test system: high sensitivity C-Reactive Protein (hsCRP); assay: AETHER exploratory outcome: hsCRP measured in patient blood; assay type: in vivo, human; conditions: high and low dose over 5 days; including patients with <2% eosinophils; maximal at Day 7; FIG. 3
# Source text: as §1
# (§2) Patients received one of two oral dosing regimens of 3-[5-amino-4-(3-cyanobenzoyl)-pyrazol-1-yl]-N-cyclopropyl-4-methylbenzamide or matching oral placebo administered according to the dosing schedules shown in Table 1.
# (§3) A further exploratory outcome included over the treatment period to Day 5 and BCT197 systemic exposure (to Day 14) were the inflammatory biomarkers high sensitivity C-Reactive Protein (hsCRP) and fibrinogen measured in patient blood. […] This was maximal at Day 7 (FIGS. 3 and 4) coincident with the highest improvement in FEV1 (FIG. 2) in response to BCT197 in the same patient population with <2% eosinophils.
# fibrinogen = assay: AETHER exploratory outcome: fibrinogen measured in patient blood; assay type: in vivo, human; conditions: high and low dose over 5 days; including patients with <2% eosinophils; maximal at Day 7; FIG. 4
# Source text: as §1, §2, §3
# AECOPD = conditions: single oral dose; cited from earlier work
smiles,measurement,setting,value
"Cc1ccc(C(=O)NC2CC2)cc1-n1ncc(C(=O)c2cccc(C#N)c2)c1N [BCT197, 3-[5-Amino-4-(3-cyanobenzoyl)-pyrazol-1-yl]-N-cyclopropyl-4-methylbenzamide]",relative difference in FEV1 response versus standard of care alone (placebo arm),"patients with AECOPD; >2% eosinophil sub-population, FIG. 1",much less than in the low eosinophil group
same,improvement in FEV1 (change from baseline to Day 7),patients with AECOPD,substantial and consistent improvement in FEV1
same,improvement in FEV1 (change from baseline to Day 7),patients with AECOPD; listed as compound A,significant improvement
same,reduction versus placebo in hsCRP from baseline,[1],dose-dependent reduction
same,reduction versus placebo in fibrinogen from baseline,fibrinogen,dose-dependent reduction
same,effect on recovery of AECOPD to the stable disease state,AECOPD,accelerates the recovery to the stable disease state
